Test results reported in the NIST ThermoML archive (doi:10.1007/s10765-015-1922-3).
Numbers after ± are expanded uncertainties.

Legend:
[1] = Liquid; for mass density: 298.15 K, 101.33 kPa, Vibrating tube method; for Normal boiling temperature: Ebulliometric method (Recirculating still)
[2] = refractive index (Na D-line) (dimensionless); settings: 298.15 K; 101.33 kPa; Liquid; Standard Abbe refractometry

mass density [1] | Normal boiling temperature [1] | refractive index [2] | Compound
873.6 ± 0.16 kg/m3 | 80.01 ± 0.2 °C | 1.49692 ± 0.00073 | c1ccccc1 [benzene]
773.7 ± 0.2 kg/m3 | 80.64 ± 0.2 °C | 1.4232 ± 0.00073 | C1CCCCC1 [cyclohexane]
799.51 ± 0.31 kg/m3 | 97.2 ± 0.2 °C | 1.38305 ± 0.00075 | CCCO [propan-1-ol]
